Results reported in the supplement of paper PMC11061612.

What was measured:
[1] = tested on: TE-1 (Esophageal Squamous Cell Carcinoma); test: Bliss excess, mean over the matrix (fraction); higher = more synergy
Outline: (§1)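 Cell lines in DMEM/F12 or RPMI with 10% FBS were plated in 1536-well plates, held 24 hours at 37°C, 5% CO2, then given two-drug dose matrices for 72 hours (DMSO typically 0.2%). Viability was read by CellTiter-Glo 2.0 luminescence and scaled as inhibition from 0 (vehicle wells) to 1 (blank wells). Combination Emax is the second-highest inhibition in the matrix; Bliss excess is observed combination effect minus expected EA + EB − EA·EB, EA and EB being single-agent effects.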

[2] = tested on: LU-65 (Non-Small Cell Lung Carcinoma); test: as above
Outline: as §1

[3] = tested on: KYSE-450 (Esophageal Squamous Cell Carcinoma); test: as above
Outline: as §1

[4] = tested on: OE19 (Esophageal Adenocarcinoma); test: as above
Outline: as §1

[5] = tested on: KARPAS-299 (T-Cell Non-Hodgkin's Lymphoma); test: as above
Outline: as §1

[6] = tested on: HSC-4 (Oral Cavity Carcinoma); test: as above
Outline: as §1

[7] = tested on: PANC-04-03 (Pancreatic Carcinoma); test: as above
Outline: as §1

[8] = tested on: NEC8 (Other Solid Carcinomas); test: as above
Outline: as §1

TK10 (Kidney Carcinoma) = test: as above
Outline: as §1

TGW (Neuroblastoma) = test: as above
Outline: as §1

[9] = tested on: Caov-4 (Ovarian Carcinoma); test: as above
Outline: as §1

[10] = tested on: Ca9-22 (Head and Neck Carcinoma); test: as above
Outline: as §1

[11] = tested on: Hs-766T (Pancreatic Carcinoma); test: as above
Outline: as §1

ACHN (Kidney Carcinoma) = test: as above
Outline: as §1

[12] = tested on: HOP-62 (Lung Adenocarcinoma); test: as above
Outline: as §1

[13] = tested on: NCI-H358 (Lung Adenocarcinoma); test: as above
Outline: as §1

YH-13 (Glioblastoma) = test: as above
Outline: as §1

[14] = tested on: NUGC-3 (Gastric Carcinoma); test: as above
Outline: as §1

[15] = tested on: OSC-20 (Oral Cavity Carcinoma); test: as above
Outline: as §1

D-263MG (Glioblastoma) = test: combination Emax (second highest fraction inhibited in the dose matrix, 72 h); higher = more inhibition; extreme values may be limits of the assay
Outline: as §1
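Wherever Bliss excess, mean over the matrix is given: after 72 h of two-drug dosing.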

SMILES	Bliss excess [1]	Bliss excess [2]	Bliss excess [3]	Bliss excess [4]	Bliss excess [5]	Bliss excess [6]	Bliss excess [7]	Bliss excess [8]	Bliss excess (TK10 (Kidney Carcinoma))	Bliss excess (TGW (Neuroblastoma))	Bliss excess [9]	Bliss excess [10]	Bliss excess [11]	Bliss excess (ACHN (Kidney Carcinoma))	Bliss excess [12]	Bliss excess [13]	Bliss excess (YH-13 (Glioblastoma))	Bliss excess [14]	Bliss excess [15]	combination Emax (D-263MG (Glioblastoma))
CS(=O)(=O)CCNCc1ccc(-c2ccc3ncnc(Nc4ccc(OCc5cccc(F)c5)c(Cl)c4)c3c2)o1 [Lapatinib] + C[C@@H](Oc1cc(-c2cnn(C3CCNCC3)c2)cnc1N)c1c(Cl)ccc(F)c1Cl [Crizotinib] (first compound max 10 µM, 7x7, partner max 10 µM)	0.0266	-0.0236	-0.0486	-0.007	0.0532	-0.0097	-0.0586	-0.0234	-0.0655	-0.0659	-0.0451	-0.0383	-0.0535	-0.0558	-0.0466	-0.0522	-0.0388	-0.142	-0.0542	0.595
Cc1c2c(nn1C)CSCc1cc(n(C)n1)CSc1cc(c3ccccc3c1)OCCCc1c(C(=O)O)n(C)c3c-2c(Cl)ccc13 [AZD5991] + Cc1cc2ncnn2cc1Nc1ncc2c(n1)n(C1CCOCC1)c(=O)n2C [AZD7648] (first compound max 1 µM, 7x7, partner max 10 µM)	-0.0494	-0.105	-0.0321	-0.0645	-0.0066	-0.0702	-0.0242	-0.0056	-0.0327	-0.03	0.0024	0.0048	-0.0936	-0.0271	-0.0758	-0.0836	-0.091	-0.0237	-0.0567	0.75
CN(C)CCCOc1ccc(-c2ccc3ncc4c(c3c2)n(C2CCOCC2)c(=O)n4C)cn1 [AZD0156] + C[C@@H]1COCCN1C2=NC(=NC(=C2)C3(CC3)[S@](=N)(=O)C)C4=C5C=CNC5=NC=C4 [AZD6738] (first compound max 1 µM, 7x7, partner max 10 µM)	-0.0595	0.021	-0.0099	0.0277	-0.0283	-0.0461	-0.0398	0.072	0.001	0.0307	-0.0388	0.0218	0.0079	-0.0212	-0.0232	0.0219	0.0019	0.064	-0.0085	0.857
COc1nnc2ccc(N3CCC(c4ccc(OCCN5CCN(C)C(=O)[C@H]5C)cc4)CC3)nn12 [AZD5153] + C[C@@H]1COCCN1C2=NC(=NC(=C2)C3(CC3)[S@](=N)(=O)C)C4=C5C=CNC5=NC=C4 [AZD6738] (first compound max 1 µM, 7x7, partner max 10 µM)	0.019	-0.0292	0.0295	-0.0416	0.0074	-0.0215	-0.008	0.0124	-0.0406	-0.0601	0.097	-0.0481	-0.0137	0.0379	-0.0276	-0.0855	-0.0157	0.0398	-0.0201	0.465
Cn1cnc2c(F)c(Nc3ccc(Br)cc3Cl)c(C(=O)NOCCO)cc21 [Selumetinib] + C[C@@H]1COCCN1C2=NC(=NC(=C2)C3(CC3)[S@](=N)(=O)C)C4=C5C=CNC5=NC=C4 [AZD6738] (first compound max 10 µM, 7x7, partner max 10 µM)	-0.0229	-0.0244	0.0046	-0.049	-0.013	0.0345	0.0023	-0.0014	-0.0373	-0.0288	-0.0221	-0.0197	-0.0794	-0.0415	-0.0175	-0.0816	-0.0485	0.0428	-0.0613	0.359
NC1(C(=O)N[C@@H](CCO)c2ccc(Cl)cc2)CCN(c2ncnc3[nH]ccc23)CC1 [Capivasertib] + CCN(CCO)CCCOc1ccc2c(Nc3cc(CC(=O)Nc4cccc(F)c4)[nH]n3)ncnc2c1 [AZD2811] (first compound max 10 µM, 7x7, partner max 1 µM)	-0.0347	-0.215	0.0066	-0.0513	0.029	-0.081	-0.0142	-0.0094	-0.0434	-0.0911	0.026	0.0117	-0.0559	-0.0384	0.0196	-0.0521	-0.0317	-0.0178	0.0045	0.455
CC(=O)Nc1cccc(-n2c(=O)n(C3CC3)c(=O)c3c(Nc4ccc(I)cc4F)n(C)c(=O)c(C)c32)c1 [Trametinib] + Cc1nc(-c2cn3c(n2)-c2ccc(-c4cnn(C(C)(C)C(N)=O)c4)cc2OCC3)n(C(C)C)n1 [Taselisib] (first compound max 1 µM, 7x7, partner max 10 µM)	0.127	0.0994	0.11	0.158	0.25	0.105	0.101	0.112	0.0739	0.085	0.0567	0.131	0.0113	0.132	0.0978	0.095	0.0704	0.104	0.0925	0.943
CC1(C)CCC(CN2CCN(c3ccc(C(=O)NS(=O)(=O)c4ccc(NCC5CCOCC5)c([N+](=O)[O-])c4)c(Oc4cnc5[nH]ccc5c4)c3)CC2)=C(c2ccc(Cl)cc2)C1 [Venetoclax] + CN(C)CCCOc1ccc(-c2ccc3ncc4c(c3c2)n(C2CCOCC2)c(=O)n4C)cn1 [AZD0156] (first compound max 1 µM, 7x7, partner max 1 µM)	-0.0468	0.0173	-0.0795	-0.0861	0.0353	-0.0392	-0.062	0.0105	-0.0782	-0.0245	-0.0256	0.0234	-0.0841	-0.0333	-0.0677	-0.0146	-0.0972	-0.0035	-0.0304	0.171
Cc1c2c(nn1C)CSCc1cc(n(C)n1)CSc1cc(c3ccccc3c1)OCCCc1c(C(=O)O)n(C)c3c-2c(Cl)ccc13 [AZD5991] + Cn1cnc2c(F)c(Nc3ccc(Br)cc3Cl)c(C(=O)NOCCO)cc21 [Selumetinib] (first compound max 1 µM, 7x7, partner max 3 µM)	0.019	0.03	0.0036	0.0051	0.0496	-0.0175	0.0201	0.0374	0.0135	0.0029	0.0604	0.0185	-0.0859	0.0314	-0.0626	0.0531	-0.0347	0.0106	0.0146	0.634
CCc1c2c(nc3ccc(O)cc13)-c1cc3c(c(=O)n1C2)COC(=O)[C@]3(O)CC [SN-38] + CN(C)CCCOc1ccc(-c2ccc3ncc4c(c3c2)n(C2CCOCC2)c(=O)n4C)cn1 [AZD0156] (first compound max 0.3 µM, 7x7, partner max 1 µM)	0.0182	-0.0148	0.0937	0.159	0.071	-0.0346	-0.0226	-0.0228	0.028	0.0047	0.0268	0.0332	-0.0147	-0.0134	0.0182	0.0282	-0.0036	0.0085	-0.0083	0.722
CCN(CCO)CCCOc1ccc2c(Nc3cc(CC(=O)Nc4cccc(F)c4)[nH]n3)ncnc2c1 [AZD2811] + C=CCn1c(=O)c2cnc(Nc3ccc(N4CCN(C)CC4)cc3)nc2n1-c1cccc(C(C)(C)O)n1 [AZD1775] (first compound max 1 µM, partner max 1 µM)	0.019	-0.0557	-0.0206	-0.0152	0.0057	-0.0467	-0.0441	0.0471	-0.0707	-0.0083	-0.0258	0.027	-0.0445	0.0555	-0.0287	-0.0312	-0.003	0.0104	-0.0449	0.51
CC(=O)c1c(C)c2cnc(Nc3ccc(N4CCNCC4)cn3)nc2n(C2CCCC2)c1=O [Palbociclib] + Cc1c2c(nn1C)CSCc1cc(n(C)n1)CSc1cc(c3ccccc3c1)OCCCc1c(C(=O)O)n(C)c3c-2c(Cl)ccc13 [AZD5991] (first compound max 10 µM, 7x7, partner max 1 µM)	-0.0182	-0.0692	-0.0623	0.0014	0.0262	-0.0729	-0.0464	0.0111	-0.0228	-0.079	-0.0133	-0.0032	-0.067	-0.0106	-0.0573	-0.0249	-0.003	-0.134	-0.0337	0.612
Cc1c2c(nn1C)CSCc1cc(n(C)n1)CSc1cc(c3ccccc3c1)OCCCc1c(C(=O)O)n(C)c3c-2c(Cl)ccc13 [AZD5991] + C1CN(CCC1(C(=O)N[C@@H](CCO)C2=CC=C(C=C2)Cl)N)C3=NC=NC4=C3C=CN4 [Capivasertib] (first compound max 1 µM, 7x7, partner max 3 µM)	-0.0107	-0.013	-0.009	-0.0273	0.0078	-0.0327	-0.0094	0.0812	-0.031	0.0078	0.0354	-0.0261	-0.0994	0.0107	-0.0422	-0.0179	-0.0229	-0.0051	0.0036	0.958
CN(CCO)CC[C@H](CSc1ccccc1)Nc1ccc(S(=O)(=O)NC(=O)c2ccc(N3CCC([C@@H](O)c4ccccc4-c4ccc(Cl)cc4)CC3)cc2)cc1S(=O)(=O)C(F)(F)F [AZD4320] + CN(C)CCCOc1ccc(-c2ccc3ncc4c(c3c2)n(C2CCOCC2)c(=O)n4C)cn1 [AZD0156] (first compound max 1 µM, 7x7, partner max 1 µM)	-0.033	-0.016	-0.0485	-0.086	0.0129	-0.0579	-0.0652	-0.0167	-0.0373	-0.0068	-0.0319	-0.0338	-0.087	-0.0045	-0.0619	-0.0101	-0.0489	-0.0477	-0.0595	0.0929
